{
  "source": "ChEMBL document CHEMBL1148213",
  "about": "“Diterpenoids from Isodon melissoides” (J Nat Prod, 2004)",
  "data": [
    {"test_system": "BGC-823", "experiment": "Cytotoxicity against human BGC823 cells", "type": "functional, cell-based", "units": {"IC50": "µg/mL"}, "values": [
      {"molecule": "C=C1[C@@H]2C[C@H](O)[C@@H]3[C@](C2)(C[C@H](OC(C)=O)[C@@H]2C(C)(C)[C@@H](OC(C)=O)C[C@H](OC(C)=O)[C@]23C)[C@@H]1O", "Activity": "Not toxic"},
      {"molecule": "C=C1C(=O)[C@]23C[C@H]1C[C@H](O)[C@H]2[C@]1(C)CC[C@H](OC(C)=O)C(C)(C)[C@H]1[C@@H](OC(C)=O)C3", "note": "[MELISSOIDESIN O]", "IC50": 7.83},
      {"molecule": "C=C1[C@@H]2C[C@H](O)[C@H]3[C@]4(C)CC[C@H](O)C(C)(C)[C@H]4[C@@H](OC(C)=O)[C@H](O)[C@]3(C2)[C@@H]1O", "Activity": "Not toxic"},
      {"molecule": "C=C1C(=O)[C@]23C[C@H]1C[C@H](O)[C@H]2[C@]1(C)CC[C@H](OC(C)=O)C(C)(C)[C@H]1[C@@H](OC(C)=O)[C@@H]3O", "note": "[MELISSOIDESIN G]", "IC50": 6.62},
      {"molecule": "C=C1C(=O)[C@]23C[C@H]1C[C@H](O)[C@H]2[C@@]1(C)[C@H]([C@@H](OC(C)=O)C3)C(C)(C)[C@@H](OC(C)=O)C[C@@H]1O", "note": "[MELISSOIDESIN S]", "IC50": 7.71},
      {"molecule": "C=C1[C@@H]2C[C@H](O)[C@H]3[C@]4(C)CC[C@H](O)C(C)(C)[C@H]4[C@@H](OC(C)=O)C[C@]3(C2)[C@@H]1O", "Activity": "Not toxic"},
      {"molecule": "C=C1C(=O)[C@]23C[C@H]1C[C@H](O)[C@H]2[C@]1(C)CC[C@H](O)C(C)(C)[C@H]1[C@@H](OC(C)=O)[C@@H]3O", "note": "[XINDONGNIN B]", "IC50": 9.45},
      {"molecule": "CC[C@]1(O)C[C@H]2CN(CCc3c([nH]c4ccccc34)[C@@](C(=O)OC)(c3cc4c(cc3OC)N(C=O)[C@H]3[C@@](O)(C(=O)OC)[C@H](OC(C)=O)[C@]5(CC)C=CCN6CC[C@]43[C@@H]65)C2)C1", "note": "[VINCRISTINE]", "IC50": 0.066},
      {"molecule": "C=C1[C@@H]2C[C@H](O)[C@H]3[C@]4(C)CC[C@H](OC(C)=O)C(C)(C)[C@H]4[C@@H](OC(C)=O)C[C@]3(C2)[C@@H]1O", "Activity": "Not toxic"},
      {"molecule": "C=C1C(=O)[C@]23C[C@H]1C[C@H](O)[C@H]2[C@]1(C)CC[C@H](OC(C)=O)C(C)(C)[C@H]1[C@@H](OC(C)=O)[C@@H]3OC(C)=O", "note": "[DAWOENSIN A]", "IC50": 3.54},
      {"molecule": "C=C1[C@@H]2C[C@H](O)[C@@H]3[C@](C2)(C[C@H](OC(C)=O)[C@@H]2C(C)(C)[C@@H](OC(C)=O)C[C@H](O)[C@]23C)[C@@H]1O", "Activity": "Not toxic"},
      {"molecule": "C=C1[C@@H]2C[C@H](O)[C@H]3[C@]4(C)CC[C@H](OC(C)=O)C(C)(C)[C@H]4[C@@H](OC(C)=O)[C@H](OC(C)=O)[C@]3(C2)[C@@H]1O", "Activity": "Not toxic"},
      {"molecule": "C=C1C(=O)[C@]23C[C@H]1C[C@H](O)[C@H]2[C@]1(C)CC[C@H](O)C(C)(C)[C@H]1[C@@H](OC(C)=O)C3", "note": "[MELISSOIDESIN N]", "IC50": 0.036},
      {"molecule": "C=C1[C@@H]2C[C@H](O)[C@H]3[C@]4(C)CC[C@H](O)C(C)(C)[C@H]4[C@@H](OC(C)=O)[C@H](OC(C)=O)[C@]3(C2)[C@@H]1O", "Activity": "Not toxic"}
    ]}
  ]
}
